Results published in patent US6448201B1, “Benzoylcyclohexanediones and benzoylpyrazoles, their preparation, and their use as herbicides and plant growth regulators” (Aventis CropScience GmbH, priority 1999, dated 2002).

Q: Which melting point does the source give for `CS(=O)(=O)c1ccc(C(=O)C2C(=O)CCCC2=O)c(Cl)c1OCc1cc(-c2ccccc2)no1` [1.70, 2-(2-Chloro-3-(3-phenylisoxazol-5-yl)methoxy-4-methylsulfonylbenzoyl)cyclohexane-1,3-dione] here?
A: 72 to 78 °C
